# Experimental data as given in patent US20260139245A1, “METHODS AND USES OF RIBONUCLEASE INHIBITORS” (Sequrna AB, priority 2022, published 2026).
# Several values for one entry are separate records, joined by “and”; a condition that tells them apart may be missing. Identical values can stand only once.
# Tested on: RNase
# Experiment: Smart-seq2 (SS2) cDNA library generation and sequencing from 100 pg mouse RNA with the agent replacing recombinant RNase inhibitor in lysis buffer
# Assay type: biochemical
# Settings: for sustained RNA stability during cDNA library generation: SS2 protocol for bulk RNA; for quality of the sequencing data compared with standard Smart-seq2 utilizing recombinant RNAse inhibitor (TaKaRa): agent used in its optimal range; for optimal range of alternative inhibitor (cDNA size distribution and yield similar to standard Smart-seq2): concentration in 1× Smart-seq2 lysis buffer, 100 pg mouse RNA
# Procedure: We started by systematically testing ranges of PVSA concentrations in the scRNAseq protocol Smart-seq2 (SS2) (5), which provides full-length read coverage across transcripts, enabling evaluation of polymerase processivity. We prepared lysis buffer containing 0-600 μg/mL of PVSA (resulting in 0-270 μg/mL in the following first-strand reaction) and 100 pg spiked mouse RNA, performed SS2 library amplification, and evaluated resulting cDNA by capillary electrophoresis (Methods).
# To examine the information yield and quality of PVSA-generated RNA-seq libraries, we sequenced SS2 libraries generated in presence of PVSA or RI (TaKaRa) and downsampled the resulting reads to allow even comparison (Methods). We analyzed library quality metrics in terms of genomic and transcriptomic mappability, base substitution rates, insertion and deletions (indels), likelihood of mismatches within the read, and average indel length.
# Bulk RNA was extracted from cultured mouse tail tip fibroblasts using TRIzol (Invitrogen). For all bulk RNAseq experiments 100 pg of RNA was used as input, if is not otherwise specified, and was added to 96-well plates containing either Smart-seq2 or Smart-seq3 standard lysis buffer or lysis buffer with varying concentrations of polyvinyl sulfonic acid (Merck, cat no. 278424). Smart-seq2 lysis buffer composition was 0.1% Triton X-100, 2.5 mM dNTP/each, […] oligo-dT (5′-[…]30VN-3′), and 4 U recombinant inhibitor (TaKaRa) or PVSA of the concentration specified for each condition; total buffer volume 4.5 ul. Smart-seq3 lysis buffer composition was 0.1% Triton X-100, 10% PEG 8000, 1 mM dNTP/each, and 1 uM Smart-seq3 oligo-dT (5′-biotin-[…] T30VN-3′), and 1 U recombinant inhibitor (TaKaRa) or PVSA of the concentration specified for each condition; total buffer volume 2 ul. For single-cell experiments, cultured HEK293FT, spleen, or liver cells in 0.5% BSA in PBS were sorted into 96 well plates containing lysis buffer using an SH800S (Sony). Single cell sorted plates were briefly centrifuged and kept at −80° C. until they were further processed. Plates containing lysis buffer and input material were then processed according to the Smart seq2 and Smart-seq3 protocols (Picelli, S. et al., 2014 and Hagemann-Jensen, M. et al., 2020), except without addition of recombinant inhibitor in the first-strand reaction mix in reactions where PVSA was used. Smart-seq2 cDNA library generation: Cell were lysed at 72° C. for 3 min in a Bioer Life ECO thermocycler and placed on ice prior to first-strand synthesis. The following reverse transcriptase reaction contained 1× Superscript II buffer, 5 mM DTT, 1M betaine, 10 mM MgCl2, 1 uM Smart-seq2 TSO (5′-[…]rGrG+G-3′), 10 U Superscript II, and 10 U recombinant inhibitor (TaKaRa) for samples containing biological inhibitor; total reaction volume 10 ul. RT thermocycles were 42° C. for 90 min, followed by 10 cycles of 42° C. for 2 min and 50° C. for 2 min. The following cDNA amplification reaction contained 1× KAPA HiFi HotStart Ready Mix and 80 nM ISPCR primers (5′-[…]-3′); total reaction volume 25 ul. Thermocycles for Smart-seq2 cDNA amplification were 98° C. for 3 min, followed by either 18 (bulk), 20 (HEK), 21 (liver) or 22 (spleen) cycles of 98° C. for 20 sec, 67° C. for 15 sec, and 72° C. for 6 min, followed by a final incubation at 72° C. for 5 min. Smart-seq3 cDNA library generation: Cell were lysed at 72° C. for 10 min and placed on ice prior to first-strand synthesis.
Compound,sustained RNA stability during cDNA library generation,"optimal concentration of alternative inhibitor (Smart-seq2 lysis buffer, 100 pg mouse fibroblast RNA)",quality of the sequencing data compared with standard Smart-seq2 utilizing recombinant RNAse inhibitor (TaKaRa),optimal range of alternative inhibitor (cDNA size distribution and yield similar to standard Smart-seq2)
"O=S(=O)(O)CCN1CCOCC1 [MES, 2-(N-morpholino)ethanesulfonic acid]",did,6 to 8 mg/mL,on par,4000 to 12000 µg/mL
"C=CP(=O)(O)O [VPA, vinylphosphonic acid, reference compound]",did not sustain RNA stability during cDNA library generation,,,
"C=CS(=O)(=O)O [VSA, Vinylsulfonic acid]",did,,on par,500 to 2000 µg/mL
Dextran sulfate,did,,on par,1 to 2.5 µg/mL and 1.5 to 2.5 µg/mL
Fucoidan,,,on par,5 to 20 µg/mL
Heparin [reference compound],did,,on par,2 to 10 µg/mL
Sodium alginate,did,,on par,200 to 400 µg/mL and 100 to 400 µg/mL
